From paper PMC11099041, “Tissue distribution and retention drives efficacy of rapidly clearing VHL-based PROTACs” (Communications Medicine, 2024)
pIC50: −log10 of the molar value.

Key:
[1] = rat, in vivo, iv, 4 mg/kg
From the text: Male Sprague Dawley rats, intact or bile-cannulated, were from Envigo RMS, Inc. The animals were acclimated to study conditions for five days prior to dose administration. During acclimation, animals were individually housed in suspended, stainless steel, wire-mesh cages. During the test period, animals were placed in Nalgene cages designed for the collection of urine, feces, and bile. Certified Rodent Diet #2016C or 2016CM (Envigo RMS, Inc.) were provided ad libitum. Water was provided fresh daily. Environmental controls for the animal room were set to maintain a temperature of 20-26 °C, a relative humidity of 50 ± 20%, and a 12-hour light/12-hour dark cycle. […] The vehicle for the IV dose was 20% 2-hydroxypropyl-β-cyclodextrin (HP-β-CD) in 50 mM sodium acetate buffer, pH 4.0. […] The supernatant was removed, and the formulation appeared to be a very slight yellow solution. Stability was checked by HPLC analysis of pre- and post-dose aliquots. Animals were not fasted. The actual amount administered was determined by weighing the dose syringe before and after dose administration. The IV dose of 4 mg/kg was administered via a tail vein. For QWBA rats, one animal/time point was prepared for QWBA at approximately 0.25, 1, 4, 8, 24, 48, 168, and 336 hours. […] Blood was maintained on wet ice until being aliquoted for radioanalysis and centrifuged to obtain plasma. […] Each carcass was drained, blotted dry, placed into an appropriately labeled bag, and placed on dry ice or stored at ~-70 °C for at least 2 hours. The frozen carcasses were embedded in chilled carboxymethylcellulose and frozen into blocks. Embedded carcasses were stored at ~-20 °C in preparation for autoradiographic analysis. The samples were stored at -70 °C before analysis. […] All samples were analyzed for radioactivity in PerkinElmer Model 2910TR liquid scintillation counters for at least 5 min or 100,000 counts. Each sample was homogenized or mixed, as applicable, before radioanalysis in duplicate within 10% of the mean value. Scintillation counting data were automatically corrected for counting efficiency using the external standardization technique and an instrument-stored quench curve generated from a series of sealed quenched standards. […] The samples were allowed to sit at least overnight to allow any foaming to dissipate. Ultima Gold XR scintillation cocktail was added, and the samples were shaken and analyzed by liquid scintillation counting (LSC). Plasma was also analyzed by LSC. The urine, bile, cage rinse, and cage wash samples were mixed by shaking, and duplicate weighed aliquots were analyzed directly by LSC. The mean time concentration profile was generated for each group, and an overall AUC was then calculated with these sparse samples of rats and mice. […] The following parameters were estimated whenever possible: C0, Back-extrapolated concentration at time 0; Cmax, Maximum observed concentration; Tmax, Time of maximum observed concentration; AUC0-t, Area under the concentration-time curve from hour 0 to the last measurable concentration, estimated by the linear trapezoidal rule; AUC0-336, Area under the concentration-time curve from hour 0 to hour 336, estimated by the linear trapezoidal rule; DN AUC0-336, Dose normalized AUC0-336, calculated as AUC0-336/dose level; AUC0-∞, Area under the concentration-time curve from hour 0 to infinity (Day 1 only), calculated as follows: AUC0-∞ = AUC0-t + Ct/λz, where Ct is the last measurable concentration and λz is the elimination rate constant; t1/2, Elimination half-life, determined by ln(2)/λz; CL, Clearance, calculated as dose/AUC0-inf; Vd, Volume of distribution based on the terminal phase, calculated as: dose/(λz × AUC0-∞) Nominal doses and sampling times were used. […] Embedded zeros were excluded from kinetic analysis.

[2] = biological target: T1, CYP2D6 (Homo sapiens, UniProt P10635); assay: Reversible P450 inhibition in HLM; type: biochemical; details: human liver microsomes, pH 7.4, probe dextromethorphan, substrate Dextromethorphan
T1 construct: phosphate buffer (100 mM, pH 7.4) containing human liver microsomes (HLM); from tissue; host or cells: human liver microsomes
Procedure: (§1) The reversible P450 inhibition assay was conducted in triplicate on a BioCel 1200 System, V11 (Agilent, CA), as previously described by Kosaka, et al.[28] […] Individual P450 specific substrates included midazolam for CYP3A4/5, dextromethorphan for CYP2D6, S-(+)-mephenytoin for CYP2C19, S-(-)-warfarin for CYP2C9, paclitaxel for CYP2C8, and tacrine for CYP1A2. P450 activity was expressed as the peak area ratio of a P450-specific metabolite formed relative to its internal standard, and inhibition percentage was calculated from P450 activity of samples relative to the solvent control. Inhibition data were processed using Prism (GraphPad Software, San Diego, CA) to calculate IC50 values for each P450 enzyme.

[3] = system: CYP3A4/5; assay: Reversible P450 inhibition in HLM; type: biochemical; details: human, human liver microsomes
Procedure: as §1, with “Individual P450 specific substrates included midazolam for CYP3A4/5, dextromethorphan for CYP2D6, S-(+)-mephenytoin for CYP2C19, S-(-)-warfarin for CYP2C9, paclitaxel for CYP2C8, and tacrine for CYP1A2.” left out

[4] = system: primary human hepatocytes; assay: Oil-spin hepatocyte uptake assay; type: in vitro ADME
Procedure: Uptake studies were conducted using the oil-spin method described previously. Cryopreserved primary human hepatocytes (Lot KCN, BioIVT, Hicksville, NY) were thawed at 37 °C and re-suspended in InVitroGro-HT medium (BioIVT, Hicksville, NY). The suspension was centrifuged at 50 × g for 5 minutes at 4 °C, and the resulting pellet was re-suspended to 2 million cells/mL in ice-cold KHB buffer with 10% human serum (BioIVT, Hicksville, NY). The cell suspension was equilibrated to 37 °C in a water bath for 10 minutes with or without inhibitors. At the start of the uptake experiment, 37 °C KHB buffer containing test compounds with or without inhibitors was added to the hepatocyte suspension. At various time points, the uptake was terminated by removing portions of the suspension to microcentrifuge tubes containing a lower […] ammonium acetate layer and an upper mineral/silicone oil layer. For the 4 °C experiment, ice-cold buffer containing test compounds with or without inhibitors was added to ice-cold hepatocyte suspension, and the mixture was incubated on ice for the duration of the experiment. The microcentrifuge tubes were immediately centrifuged at 16,000 × g for 12 seconds. The tubes were then frozen on dry ice. The frozen hepatocyte pellets were cut from the tubes and transferred to −80 °C freezer until LC-MS/MS analysis. […]

T1 sequence (P10635 whole entry): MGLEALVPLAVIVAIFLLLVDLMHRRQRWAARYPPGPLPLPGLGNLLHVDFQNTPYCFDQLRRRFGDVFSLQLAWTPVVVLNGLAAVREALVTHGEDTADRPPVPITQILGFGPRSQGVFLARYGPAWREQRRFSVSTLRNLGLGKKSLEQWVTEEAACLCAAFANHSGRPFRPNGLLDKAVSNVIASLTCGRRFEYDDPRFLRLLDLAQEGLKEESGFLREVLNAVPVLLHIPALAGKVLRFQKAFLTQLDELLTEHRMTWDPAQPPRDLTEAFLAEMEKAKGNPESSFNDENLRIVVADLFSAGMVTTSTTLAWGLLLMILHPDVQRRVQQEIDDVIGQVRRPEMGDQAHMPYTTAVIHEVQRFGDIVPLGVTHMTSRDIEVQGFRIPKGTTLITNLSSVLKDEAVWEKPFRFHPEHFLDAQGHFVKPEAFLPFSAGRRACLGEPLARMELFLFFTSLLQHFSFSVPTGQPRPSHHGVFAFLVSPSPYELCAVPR

Row | SMILES | AUC0–∞ in plasma and blood [1] | Cmax of radioactivity in blood [1] [µg/g] | Cmax of radioactivity in plasma [1] [µg/g] | Initial decrease of radioactivity in blood and plasma [1] | Radioactivity in plasma and blood at 336 hours [1] [ng/g] | Terminal clearance (CL) [1] | Terminal elimination half-life (t1/2) in plasma and blood [1] [h] | Tmax in blood and plasma [1] [h] | Volume of distribution (Vd) [1] [L/kg] | pIC50 [2] | pIC50 ([3]; pH 7.4, probe midazolam, substrate Midazolam) | pIC50 ([3]; pH 7.4, probe testosterone, substrate Testosterone) | Uptake by primary human hepatocytes at 4 °C ([4]; 4 °C) | Temperature-dependent uptake with rifamycin SV ([4]; co-administration of 1 mM rifamycin SV)
1 | Cc1ncsc1-c1ccc(C(C)NC(=O)C2CC(O)CN2C(=O)C(c2cc(N3CCC(CN4CCC(OC5CC(Oc6cc(N7C8CCC7CN(c7cc(-[14c]9[14cH][14cH][14cH][14cH][14c]9O)nnc7N)C8)ccn6)C5)CC4)CC3)no2)C(C)C)cc1 (centres unmarked) [14C-A947] | ~ 18 µg h/g | 1.13 | 1.22 | greater than 90% | 3 to 6 | ~ 5.8 mL/min/kg | 72 to 75 | 0.25 | 23.9 | – | – | – | – | –
2 | Cc1ncsc1-c1ccc(C(C)NC(=O)C2CC(O)CN2C(=O)C(c2cc(N3CCC(CN4CCC(OC5CC(Oc6cc(N7C8CCC7CN(c7cc(-c9ccccc9O)nnc7N)C8)ccn6)C5)CC4)CC3)no2)C(C)C)cc1 (centres unmarked) [A947] | – | – | – | – | – | – | – | – | – | < 5.00 | 6.27 | < 5.00 | abolished | largely inhibited
